Experimental data reported in patent publication US20240391902A1, “Crystalline Form of Compound” (Shenzhen Forward Pharmaceuticals Co., Limited, priority 2020, published 2024).
Entries after “also recorded” stand apart in the source; their conditions may differ. Like-named read-outs stand apart in the source and are kept apart here.

Experiments:
[1] = Solid solubility test (2 h and 24 h); type: physicochemical; conditions: for Solubility measured at 2 h: 37° C., based on free base
Protocol: 5 samples were weighed for each amorphous salt solid (equivalent to 20 mg of free base), and 10 mL of the following solvents were respectively added: 0.1N HCl solution (pH 1.0), 50 mM phosphate buffer (pH 4.5), FeSSIF-V1 (pH 5.0), FaSSIF-V1 (pH 6.5) and SGF (pH 2.0), and stirred at 37° C. for 2 h. The suspension was then centrifuged at 37° C., the supernatant was measured for solubility by HPLC, and the solid fraction was measured for XRPD. The target solubility was at least 2 mg (based on free base)/mL.

[2] = Solid storage stability test; type: physicochemical; conditions: for chemical and physical stability after storage: solid/25° C./60% RH/open/1 week and/or solid/60° C./closed container/1 week
Protocol: Each amorphous salt solid was weighed (two 2 mg samples were weighed for purity testing after solid storage stability study, and one 10 mg sample was weighed for XRPD testing after solid storage stability study) and placed in a glass vial. In a 25° C./60% RH solid storage stability test, the amorphous salt solid was placed in a 25° C./60% RH constant temperature and humidity chamber, and placed in the dark for 1 week (i.e. “solid/25° C./60% RH/open/1 week”), and in a 60° C. solid storage stability test, the amorphous salt solid was sealed in an oven at 60° C. and heated for 1 week in the dark (i.e. “solid/60° C./closed container/1 week”). Then the sample was taken out for purity testing, crystal form detection and appearance observation, respectively.

[3] = Drug absorption test in male Han-Wister rats; type: in vivo; conditions: for F: intragastric versus intravenous administration, doses 80, 100, 93.2, 81.1 mg/kg for Example 1, 2, 3, 4
Protocol: Intravenous administration: Three healthy male Han-Wister rats having a body weight of 250-350 g were provided by Beijing Vital River Laboratory Animal Technology Co., Ltd. The above compound of Example 1 was administered intravenously at the doses (calculated based on free base) listed in Table 1 below, respectively. Before administration and 15 min, 0.5 h, 1.0 h, 2.0 h, 4.0 h, 8.0 h, 12 h, and 24 h after administration, jugular vein puncture was performed to take 0.05 mL of blood, plasma was separated and prepared, and the drug concentration in the plasma was measured by liquid chromatography-tandem mass spectrometry (LC-MS) to obtain a drug concentration-time curve.
Intragastric administration: Twelve healthy male Han-Wister rats having a body weight of 250-350 g were provided by Beijing Vital River Laboratory Animal Technology Co., Ltd. and randomly divided into 4 groups. The above compounds of Example 1, Example 2, Example 3 and Example 4 were administered intragastrically at the doses (calculated based on free base) listed in Table 2 below, respectively. Before administration and 15 min, 0.5 h, 1.0 h, 2.0 h, 4.0 h, 8.0 h, 12 h, and 24 h after administration, jugular vein puncture was performed to take 0.05 mL of blood, plasma was separated and prepared, and the drug concentration in the plasma was measured by liquid chromatography-tandem mass spectrometry (LC-MS) to obtain a drug concentration-time curve.

[4] = Solid solubility test (2 h and 24 h); type: physicochemical; conditions: for Solubility measured at 24 h: 37° C., based on free base
[5] = Chemical and physical stability of the salts at the end of the preparation; type: physicochemical
Description: It is crucial for drug development whether the salts obtained as above have chemical and physical stability at the end of the preparation.

[6] = Test BS1: solid/25° C./60% RH/open/1 week
[7] = Test BS2: solid/60° C./closed container/1 week
[8] = intragastric administration, doses 80, 100, 93.2, 81.1 mg/kg for Example 1, 2, 3, 4 (calculated based on free base)

C=CC(=O)Nc1cc(Nc2ncnc(-c3cn(C)c4ccccc34)n2)c(OC)cc1N(C)CCN(C)C [Example 1]
pH measured at 2 h ([1]; Test ES4: FaSSIF-V1 (pH 6.5)): (6.8)
Solubility measured at 2 h ([1]; Test ES4: FaSSIF-V1 (pH 6.5)): >2 mg/mL
Color [2, 6]: no color change
Morphology (XRPD crystallinity) [2, 6]: amorphous (FIG. 89),
Morphology (agglomeration, appearance) [2, 6]: no agglomeration
Color [2, 7]: no color change
Morphology (XRPD crystallinity) [2, 7]: medium crystallinity
physical and chemical stability (in words) ([2]; solid/25° C./60% RH/open/1 week, listed as amorphous free base): good physical and chemical stability
physical and chemical stability (in words) ([2]; solid/60° C./closed container/1 week, listed as amorphous free base): transformed from amorphous to a moderate crystallinity
AUC0-t [3, 8]: 3968 ng·h/mL
Cmax [3, 8]: 583 ng/mL
F [3]: 11.1%
half-life ([3]; male, Han-Wister, rat, plasma, iv, 1 mg/kg, intravenous administration, 1.0 mg/kg (calculated based on free base), rat plasma): 2.99 h
AUC0-t ([3]; male, Han-Wister, rat, plasma, iv, 1 mg/kg, intravenous administration, 1.0 mg/kg (calculated based on free base), rat plasma, read-out: AUC0-t): 446 ng·h/mL
Cmax ([3]; male, Han-Wister, rat, plasma, iv, 1 mg/kg, intravenous administration, 1.0 mg/kg (calculated based on free base), rat plasma, read-out: Cmax): 364 ng/mL
half-life ([3]; male, Han-Wister, rat, plasma, po, 81.1 mg/kg, intragastric administration, doses 80, 100, 93.2, 81.1 mg/kg for Example 1, 2, 3, 4 (calculated based on free base)): 3.36 h
pH measured at 24 h ([4]; Test ES3: FeSSIF-VI (pH 5.0)): (5.0)
Solubility measured at 24 h ([4]; Test ES3: FeSSIF-VI (pH 5.0)): >2000 µg/mL
pH measured at 24 h ([4]; Test ES4: FaSSIF-VI (pH 6.5)): (6.8)
Solubility measured at 24 h ([4]; Test ES4: FaSSIF-VI (pH 6.5)): >2000 µg/mL

C=CC(=O)Nc1cc(Nc2ncnc(-c3cn(C)c4ccccc34)n2)c(OC)cc1N(C)CCN(C)C [Example 2]
pH measured at 2 h ([1]; Test ES4: FaSSIF-V1 (pH 6.5)): (6.5)
Solubility measured at 2 h ([1]; Test ES4: FaSSIF-V1 (pH 6.5)): >2 mg/mL
Color [2, 6]: no color change
Morphology (XRPD crystallinity) [2, 6]: amorphous (FIG. 90),
Morphology (agglomeration, appearance) [2, 6]: no agglomeration
Color [2, 7]: no color change
Morphology (XRPD crystallinity) [2, 7]: amorphous (FIG. 90),
Morphology (agglomeration, appearance) [2, 7]: no agglomeration
chemical and physical stability after storage ([2]; listed as 1 eq. hydrochloride salt): chemically unstable
chemical and physical stability after storage ([2]; listed as amorphous 1 eq. hydrochloride salt): chemically unstable
physical and chemical stability (in words) ([2]; solid/25° C./60% RH/open/1 week, listed as amorphous 1 eq. hydrochloride salt): good physical and chemical stability
AUC0-t [3, 8]: 13060 ng·h/mL
Cmax [3, 8]: 1024 ng/mL
T1/2 [3, 8]: 6.65 h
F [3]: 29.3%

C=CC(=O)Nc1cc(Nc2ncnc(-c3cn(C)c4ccccc34)n2)c(OC)cc1N(C)CCN(C)C [Example 3]
pH measured at 2 h ([1]; Test ES4: FaSSIF-V1 (pH 6.5)): (6.1)
Solubility measured at 2 h ([1]; Test ES4: FaSSIF-V1 (pH 6.5)): >2 mg/mL
Color [2, 6]: slight color change
Morphology (XRPD crystallinity) [2, 6]: amorphous (FIG. 91),
Morphology (agglomeration, appearance) [2, 6]: partial agglomeration
Color [2, 7]: no color change
Morphology (XRPD crystallinity) [2, 7]: amorphous (FIG. 91),
Morphology (agglomeration, appearance) [2, 7]: no agglomeration
chemical and physical stability after storage ([2]; listed as 2 eq. hydrochloride salt): physically unstable
chemical and physical stability after storage ([2]; listed as amorphous 2 eq. hydrochloride salt): physically unstable
physical and chemical stability (in words) ([2]; solid/25° C./60% RH/open/1 week, listed as amorphous 2 eq. hydrochloride salt): slight color change and showed a certain hygroscopicity (partial agglomeration)
physical and chemical stability (in words) ([2]; solid/60° C./closed container/1 week, listed as amorphous 2 eq. hydrochloride salt): good physical and chemical stability
AUC0-t [3, 8]: 11213 ng·h/mL
Cmax [3, 8]: 1020 ng/mL
T1/2 [3, 8]: 6.04 h
F [3]: 27.0%

C=CC(=O)Nc1cc(Nc2ncnc(-c3cn(C)c4ccccc34)n2)c(OC)cc1N(C)CCN(C)C [Example 4]
pH measured at 2 h ([1]; Test ES4: FaSSIF-V1 (pH 6.5)): (6.5)
Solubility measured at 2 h ([1]; Test ES4: FaSSIF-V1 (pH 6.5)): >2 mg/mL
Color [2, 6]: no color change
Morphology (XRPD crystallinity) [2, 6]: amorphous (FIG. 93),
Morphology (agglomeration, appearance) [2, 6]: no agglomeration
Color [2, 7]: no color change
Morphology (XRPD crystallinity) [2, 7]: amorphous (FIG. 93),
Morphology (agglomeration, appearance) [2, 7]: no agglomeration
chemical and physical stability after storage ([2]; listed as 1 eq. mesylate salt): chemically and physically stable
chemical and physical stability after storage ([2]; listed as amorphous 1 eq. mesylate salt): chemically and physically stable
physical and chemical stability (in words) ([2]; solid/25° C./60% RH/open/1 week, listed as amorphous 1 eq. mesylate salt): good physical and chemical stability
physical and chemical stability (in words) ([2]; solid/60° C./closed container/1 week, listed as amorphous 1 eq. mesylate salt): good physical and chemical stability
AUC0-t [3, 8]: 9703 ng·h/mL
Cmax [3, 8]: 1376 ng/mL
T1/2 [3, 8]: 6.17 h
F [3]: 26.8%
pH measured at 24 h ([4]; Test ES3: FeSSIF-VI (pH 5.0)): (5.0)
Solubility measured at 24 h ([4]; Test ES3: FeSSIF-VI (pH 5.0)): >2000 µg/mL
pH measured at 24 h ([4]; Test ES4: FaSSIF-VI (pH 6.5)): (6.6)
Solubility measured at 24 h ([4]; Test ES4: FaSSIF-VI (pH 6.5)): >2000 µg/mL

C=CC(=O)Nc1cc(Nc2ncnc(-c3cn(C)c4ccccc34)n2)c(OC)cc1N(C)CCN(C)C [Example 10]
XRPD measured at 2 h (solid fraction) ([1]; Test ES4: FaSSIF-V1 (pH 6.5)): hydrobromide
pH measured at 2 h ([1]; Test ES4: FaSSIF-V1 (pH 6.5)): (6.4)
Solubility measured at 2 h ([1]; Test ES5: SGF (pH 2.0)): >2 mg/ml mg/mL
Color [2, 6]: no color change
Morphology (XRPD crystallinity) [2, 6]: no crystal form
Color [2, 7]: no color change
Morphology (XRPD crystallinity) [2, 7]: no crystal form
chemical and physical stability after storage ([2]; listed as 1 eq. hydrobromide salt): chemically and physically stable
chemical and physical stability after storage ([2]; listed as crystalline 1 eq. hydrobromide salt): chemically and physically stable
physical and chemical stability (in words) ([2]; solid/25° C./60% RH/open/1 week, listed as crystalline 1 eq. hydrobromide salt): good physical and chemical stability
physical and chemical stability (in words) ([2]; solid/60° C./closed container/1 week, listed as crystalline 1 eq. hydrobromide salt): good physical and chemical stability

C=CC(=O)Nc1cc(Nc2ncnc(-c3cn(C)c4ccccc34)n2)c(OC)cc1N(C)CCN(C)C [Example 12]
chemical and physical stability at the end of the preparation ([5]; listed as amorphous sulfate salt): chemically stable; also recorded: physically unstable due to a certain hygroscopicity

C=CC(=O)Nc1cc(Nc2ncnc(-c3cn(C)c4ccccc34)n2)c(OC)cc1N(C)CCN(C)C [Example 13]
chemical and physical stability at the end of the preparation ([5]; listed as amorphous 2 eq. p-tosylate salt): chemically stable; also recorded: physically unstable due to caking and fusion to a glassy state upon short exposure to environmental conditions

C=CC(=O)Nc1cc(Nc2ncnc(-c3cn(C)c4ccccc34)n2)c(OC)cc1N(C)CCN(C)C [Example 14]
chemical and physical stability at the end of the preparation ([5]; listed as amorphous sulfosalicylate salt (Sample No. Y11526-25-FD13-1,4-dioxane)): chemically and physically stable

C=CC(=O)Nc1cc(Nc2ncnc(-c3cn(C)c4ccccc34)n2)c(OC)cc1N(C)CCN(C)C [Example 15]
chemical and physical stability at the end of the preparation ([5]; listed as amorphous sulfosalicylate salt (Sample No. Y11526-25-FD12-1,4-dioxane)): chemically and physically stable
